Results reported in ChEMBL document CHEMBL1201862, “PubChem BioAssay data set” (2004).
Calls of active or inactive are those of the source.

Columns and labels:
HEK293 [1] = test: cells; format: functional, cell-based; details: Homo sapiens
HEK293 [2] = test: cells; format: functional, cell-based; details: Homo sapiens; remark: listed apart in the source
[3] = target: Nucleotide-binding oligomerization domain-containing protein 2 (Homo sapiens, UniProt Q9HC29); test: NOD2 signaling inhibitors, cell-based, luminescence, uHTS, HEK293 (AID 1566); format: functional
Nucleotide-binding oligomerization domain-containing protein 2, sequence (Q9HC29 whole entry, the tested form may be a part): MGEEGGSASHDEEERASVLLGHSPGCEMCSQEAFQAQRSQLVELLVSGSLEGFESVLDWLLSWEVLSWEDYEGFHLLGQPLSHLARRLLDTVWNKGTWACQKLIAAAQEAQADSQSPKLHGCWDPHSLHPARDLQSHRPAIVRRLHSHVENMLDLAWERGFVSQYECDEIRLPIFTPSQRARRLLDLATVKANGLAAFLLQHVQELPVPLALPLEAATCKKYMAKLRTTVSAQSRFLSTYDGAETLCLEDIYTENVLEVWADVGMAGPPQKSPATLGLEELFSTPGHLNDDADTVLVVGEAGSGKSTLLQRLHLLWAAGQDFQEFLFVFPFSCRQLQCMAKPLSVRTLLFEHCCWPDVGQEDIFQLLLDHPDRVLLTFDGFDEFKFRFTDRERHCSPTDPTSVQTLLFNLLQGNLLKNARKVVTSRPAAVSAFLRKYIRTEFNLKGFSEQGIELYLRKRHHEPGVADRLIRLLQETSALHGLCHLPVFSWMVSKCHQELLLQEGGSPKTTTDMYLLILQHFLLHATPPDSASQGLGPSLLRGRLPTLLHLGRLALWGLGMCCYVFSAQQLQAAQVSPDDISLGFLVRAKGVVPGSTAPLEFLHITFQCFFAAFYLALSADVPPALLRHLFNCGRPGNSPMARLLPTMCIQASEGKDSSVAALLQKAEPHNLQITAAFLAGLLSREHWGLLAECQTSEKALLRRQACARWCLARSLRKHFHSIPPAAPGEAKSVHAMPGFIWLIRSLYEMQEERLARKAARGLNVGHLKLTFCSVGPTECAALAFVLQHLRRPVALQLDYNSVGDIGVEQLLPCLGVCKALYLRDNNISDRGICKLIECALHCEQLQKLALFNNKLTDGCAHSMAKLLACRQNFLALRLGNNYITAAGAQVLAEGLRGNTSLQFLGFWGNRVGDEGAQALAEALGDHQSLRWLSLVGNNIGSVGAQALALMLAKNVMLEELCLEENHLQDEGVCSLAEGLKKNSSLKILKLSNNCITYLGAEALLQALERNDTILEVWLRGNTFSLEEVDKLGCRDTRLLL

Phospholipase A2 = Phospholipase A2 (Homo sapiens, UniProt P04054); format: functional;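 note: confirmatory dose-response counterscreen on phospholipase A2, testing hits that came from an ultra-high-throughput screen for ATG4B inhibitors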
Phospholipase A2, sequence (P04054 whole entry): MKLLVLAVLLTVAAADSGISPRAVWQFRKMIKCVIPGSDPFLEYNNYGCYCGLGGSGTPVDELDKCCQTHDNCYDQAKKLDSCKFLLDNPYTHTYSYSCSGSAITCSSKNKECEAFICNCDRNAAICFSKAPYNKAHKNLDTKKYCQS

Cysteine protease ATG4B = target: T1, Cysteine protease ATG4B (Homo sapiens, UniProt Q9Y4P1); format: functional;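 note: Fluorescence-based dose-response confirmation assay measuring inhibition of ATG4B activity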
T1 sequence (Q9Y4P1 whole entry): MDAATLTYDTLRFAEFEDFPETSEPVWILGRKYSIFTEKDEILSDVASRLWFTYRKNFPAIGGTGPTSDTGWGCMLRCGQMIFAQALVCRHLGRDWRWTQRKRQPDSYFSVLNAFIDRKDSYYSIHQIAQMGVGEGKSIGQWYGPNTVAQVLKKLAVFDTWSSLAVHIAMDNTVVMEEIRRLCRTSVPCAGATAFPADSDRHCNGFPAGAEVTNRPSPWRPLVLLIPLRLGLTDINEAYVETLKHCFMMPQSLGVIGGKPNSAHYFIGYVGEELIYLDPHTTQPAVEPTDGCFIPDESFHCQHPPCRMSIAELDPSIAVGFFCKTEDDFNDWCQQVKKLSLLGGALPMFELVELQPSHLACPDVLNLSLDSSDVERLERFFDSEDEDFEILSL

HEK293 [4] = test: NOD1 signaling inhibitors, primary screen, cell-based, luminescence, uHTS (AID 1578); format: functional; details: Homo sapiens
HEK293 [5] = test: cells; format: functional, cell-based; details: Homo sapiens; remark: listed apart in the source
HEK293 [6] = test: NOD2 signaling inhibitors in MDP-stimulated cells, cell-based, uHTS, luminescence (AID 2001); format: functional; details: Homo sapiens
cells [7] = format: functional, cell-based
INS1 = test: beta cell apoptosis inhibitors, cytokine rescue, dose response, luminescence, retest (AID 449756); format: functional, cell-based; details: Rattus norvegicus;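 note: cell death triggered by IL-1 beta plus TNF-alpha plus IFN-gamma mixture; protective hits raise ATP signal compared with cytokine alone wells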
[8] = Vero E6 cell cytotoxicity, dose response, cytotoxicity control for non-replicating M. tuberculosis project, secondary assay (AID 492998); format: functional, VeroE6; details: Vero C1008
[9] = Luminescence Cell-Based Dose Confirmation HTS to Identify Inhibitors of Platelet Dense Granule Release. [Related pubchem assays: 1663 (Primary HTS), 1678 (Summary of Project)]; format: functional
cells [10] = format: functional, cell-based; remark: listed apart in the source
[11] = target: Luciferin 4-monooxygenase (Photinus pyralis, UniProt P08659); test: firefly luciferase enzyme inhibitors, dose response, biochemical, luminescence (AID 1891)
Luciferin 4-monooxygenase, sequence (P08659 whole entry): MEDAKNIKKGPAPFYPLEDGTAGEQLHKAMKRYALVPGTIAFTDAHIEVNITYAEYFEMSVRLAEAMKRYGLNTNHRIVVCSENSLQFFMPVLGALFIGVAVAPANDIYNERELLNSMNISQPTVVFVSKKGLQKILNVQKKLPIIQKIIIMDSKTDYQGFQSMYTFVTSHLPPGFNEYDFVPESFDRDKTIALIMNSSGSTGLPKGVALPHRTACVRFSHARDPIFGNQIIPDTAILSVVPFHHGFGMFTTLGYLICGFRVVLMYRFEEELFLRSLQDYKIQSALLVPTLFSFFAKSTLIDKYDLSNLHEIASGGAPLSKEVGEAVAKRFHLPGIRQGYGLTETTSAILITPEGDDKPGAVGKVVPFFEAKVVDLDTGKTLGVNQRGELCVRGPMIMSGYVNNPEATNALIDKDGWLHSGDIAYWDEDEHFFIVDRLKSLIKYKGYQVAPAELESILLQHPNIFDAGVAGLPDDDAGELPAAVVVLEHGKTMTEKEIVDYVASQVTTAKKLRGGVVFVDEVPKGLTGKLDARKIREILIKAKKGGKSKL

[12] = THP-1 cell cytotoxicity, dose response, cytotoxicity control for non-replicating M. tuberculosis project (AID 489025); format: functional
[13] = HepG2 cell cytotoxicity, dose response, cytotoxicity control for non-replicating M. tuberculosis project (AID 489018); format: functional; details: Mycobacterium tuberculosis

| SMILES | IC50 (HEK293 [1]) | IC50 (HEK293 [2]) | EC50 [3] | IC50 (Phospholipase A2) | IC50 (Cysteine protease ATG4B) | EC50 (HEK293 [4]) | IC50 (HEK293 [5]) | IC50 (HEK293 [6]) | EC50 (cells [7]) | AC50 (INS1) | CC50 [8] | EC50 [9] | EC50 (cells [10]) | EC50 [11] | CC50 [12] | CC50 [13] |
| --- | --- | --- | --- | --- | --- | --- | --- | --- | --- | --- | --- | --- | --- | --- | --- | --- |
| COc1ccc2nc(N3CCCCC3)c(/C=C3\SC(=S)NC3=O)cc2c1 | 19.5 µM (active) | 4.9 µM (active) | 16.2 µM (active) | 2.47 µM (active) | 4.24 µM (active) | 2.17 µM (active) | > 20 µM (inactive) | 4.26 µM (inactive) |  |  |  |  |  |  |  |  |
| Cc1cc(C(=O)CSc2nnc(-c3ccco3)o2)c(C)n1-c1ccc2c(c1)OCCO2 | > 20 µM (inactive) | 13.3 µM (active) | > 20 µM (inactive) |  |  | 5.37 µM (active) | > 20 µM (inactive) | 14.5 µM (inactive) |  |  |  |  |  |  |  |  |
| COc1cccc(/C=N/NC(=O)c2ccoc2C)c1O |  |  |  |  |  |  |  |  | 82.2 µM (active) | 3.85 µM (active) | 9.35 µM (active) | 2.09 µM (active) | 7.29 µM (active) | 4.56 µM (active) | 4.17 µM (active) | 6.69 µM (active) |
